Test results as given in the supplement of paper PMC10307832.

Experiments:
Experiment in all cases: relative viability (nuclei count vs DMSO), 5 days (fraction); higher = more cells survive
NCI-H2126 = system: NCI-H2126
Summary of the method: (§1)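 Relative viability equals treated-well nuclei counts divided by vehicle-well nuclei counts. Counts came from 4× images of lung cancer cell lines grown in 1536-well plates for 5 days after pin-tool dosing on the day after seeding. Dosing used one drug alone or a fixed anchor-drug dose plus five library-drug doses (not always all listed) in √10 steps, and values are medians of duplicate plates.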

LCLC-103H = system: LCLC-103H
Summary of the method: as §1

SK-MES-1 = system: SK-MES-1
Summary of the method: as §1

NCI-H1944 = system: NCI-H1944
Summary of the method: as §1

NCI-H1993 = system: NCI-H1993
Summary of the method: as §1

PC-14 = system: PC-14
Summary of the method: as §1

LK-2 = system: LK-2
Summary of the method: as §1

HCC-827 = system: HCC-827
Summary of the method: as §1

NCI-H661 = system: NCI-H661
Summary of the method: as §1

NCI-H727 = system: NCI-H727
Summary of the method: as §1

NCI-H441 = system: NCI-H441
Summary of the method: as §1

HOP-62 = system: HOP-62
Summary of the method: as §1

EKVX = system: EKVX
Summary of the method: as §1

LXF-289 = system: LXF-289
Summary of the method: as §1

NCI-H647 = system: NCI-H647
Summary of the method: as §1

ChaGo-K-1 = system: ChaGo-K-1
Summary of the method: as §1

NCI-H2170 = system: NCI-H2170
Summary of the method: as §1

BEN = system: BEN
Summary of the method: as §1

LOU-NH91 = system: LOU-NH91
Summary of the method: as §1

NCI-H1666 = system: NCI-H1666
Summary of the method: as §1

NCI-H1355 = system: NCI-H1355
Summary of the method: as §1

RERF-LC-KJ = system: RERF-LC-KJ
Summary of the method: as §1

NCI-H1437 = system: NCI-H1437
Summary of the method: as §1

## Cc1cn(-c2cc(NC(=O)c3ccc(C)c(Nc4nccc(-c5cccnc5)n4)c3)cc(C(F)(F)F)c2)cn1 [Nilotinib] + CCNC(=O)c1noc(-c2cc(C(C)C)c(O)cc2O)c1-c1ccc(CN2CCOCC2)cc1 [Luminespib] (partner 0.01 µM)
NCI-H2126; first compound 0.001 µM
  relative viability: 0.832
NCI-H2126; first compound 0.003162 µM
  relative viability: 1
NCI-H2126; first compound 0.01 µM
  relative viability: 1.1
NCI-H2126; first compound 0.03162 µM
  relative viability: 0.936
NCI-H2126; first compound 0.1 µM
  relative viability: 0.596
LCLC-103H; first compound 0.001 µM
  relative viability: 0.971
LCLC-103H; first compound 0.003162 µM
  relative viability: 1.3
LCLC-103H; first compound 0.01 µM
  relative viability: 1.33
LCLC-103H; first compound 0.03162 µM
  relative viability: 0.927
LCLC-103H; first compound 0.1 µM
  relative viability: 0.919
SK-MES-1; first compound 0.001 µM
  relative viability: 0.784
SK-MES-1; first compound 0.003162 µM
  relative viability: 0.985
SK-MES-1; first compound 0.01 µM
  relative viability: 0.927
SK-MES-1; first compound 0.03162 µM
  relative viability: 0.672
SK-MES-1; first compound 0.1 µM
  relative viability: 0.626
NCI-H1944; first compound 0.001 µM
  relative viability: 0.627
NCI-H1944; first compound 0.003162 µM
  relative viability: 0.669
NCI-H1944; first compound 0.01 µM
  relative viability: 0.669
NCI-H1944; first compound 0.03162 µM
  relative viability: 0.694
NCI-H1993; first compound 0.001 µM
  relative viability: 0.928
NCI-H1993; first compound 0.003162 µM
  relative viability: 0.456
NCI-H1993; first compound 0.01 µM
  relative viability: 0.912
NCI-H1993; first compound 0.03162 µM
  relative viability: 0.773
NCI-H1993; first compound 0.1 µM
  relative viability: 0.765
PC-14; first compound 0.001 µM
  relative viability: 0.168
PC-14; first compound 0.003162 µM
  relative viability: 0.152
PC-14; first compound 0.01 µM
  relative viability: 0.138
PC-14; first compound 0.03162 µM
  relative viability: 0.123
PC-14; first compound 0.1 µM
  relative viability: 0.153
LK-2; first compound 0.003162 µM
  relative viability: 0.139
LK-2; first compound 0.01 µM
  relative viability: 0.207
LK-2; first compound 0.03162 µM
  relative viability: 0.196
LK-2; first compound 0.1 µM
  relative viability: 0.182
HCC-827; first compound 0.003162 µM
  relative viability: 0.634
HCC-827; first compound 0.01 µM
  relative viability: 0.721
HCC-827; first compound 0.03162 µM
  relative viability: 0.563
HCC-827; first compound 0.1 µM
  relative viability: 0.542
NCI-H661; first compound 0.001 µM
  relative viability: 1.01
NCI-H661; first compound 0.003162 µM
  relative viability: 0.961
NCI-H661; first compound 0.03162 µM
  relative viability: 1.01
NCI-H661; first compound 0.1 µM
  relative viability: 0.832
NCI-H727; first compound 0.001 µM
  relative viability: 0.349
NCI-H727; first compound 0.003162 µM
  relative viability: 0.516
NCI-H727; first compound 0.01 µM
  relative viability: 0.227
NCI-H727; first compound 0.03162 µM
  relative viability: 0.281
NCI-H727; first compound 0.1 µM
  relative viability: 0.344
NCI-H441; first compound 0.001 µM
  relative viability: 0.33
NCI-H441; first compound 0.003162 µM
  relative viability: 0.375
NCI-H441; first compound 0.01 µM
  relative viability: 0.322
NCI-H441; first compound 0.03162 µM
  relative viability: 0.413
NCI-H441; first compound 0.1 µM
  relative viability: 0.304
HOP-62; first compound 0.001 µM
  relative viability: 0.727
HOP-62; first compound 0.003162 µM
  relative viability: 0.792
HOP-62; first compound 0.01 µM
  relative viability: 0.839
HOP-62; first compound 0.03162 µM
  relative viability: 0.786
HOP-62; first compound 0.1 µM
  relative viability: 0.529
EKVX; first compound 0.001 µM
  relative viability: 0.839
EKVX; first compound 0.003162 µM
  relative viability: 0.959
EKVX; first compound 0.01 µM
  relative viability: 1.09
EKVX; first compound 0.03162 µM
  relative viability: 0.88
EKVX; first compound 0.1 µM
  relative viability: 0.955
LXF-289; first compound 0.001 µM
  relative viability: 0.655
LXF-289; first compound 0.003162 µM
  relative viability: 1.02
LXF-289; first compound 0.01 µM
  relative viability: 0.988
LXF-289; first compound 0.03162 µM
  relative viability: 0.573
LXF-289; first compound 0.1 µM
  relative viability: 0.649
NCI-H647; first compound 0.001 µM
  relative viability: 0.228
NCI-H647; first compound 0.003162 µM
  relative viability: 0.194
NCI-H647; first compound 0.01 µM
  relative viability: 0.194
NCI-H647; first compound 0.03162 µM
  relative viability: 0.129
NCI-H647; first compound 0.1 µM
  relative viability: 0.161
ChaGo-K-1; first compound 0.001 µM
  relative viability: 0.416
ChaGo-K-1; first compound 0.003162 µM
  relative viability: 0.48
ChaGo-K-1; first compound 0.01 µM
  relative viability: 1.01
ChaGo-K-1; first compound 0.03162 µM
  relative viability: 0.531
ChaGo-K-1; first compound 0.1 µM
  relative viability: 0.666
NCI-H2170; first compound 0.001 µM
  relative viability: 0.591
NCI-H2170; first compound 0.003162 µM
  relative viability: 1.11
NCI-H2170; first compound 0.01 µM
  relative viability: 1.5
NCI-H2170; first compound 0.03162 µM
  relative viability: 0.328
NCI-H2170; first compound 0.1 µM
  relative viability: 0.877
BEN; first compound 0.001 µM
  relative viability: 0.563
BEN; first compound 0.003162 µM
  relative viability: 0.275
BEN; first compound 0.01 µM
  relative viability: 0.378
BEN; first compound 0.03162 µM
  relative viability: 0.277
BEN; first compound 0.1 µM
  relative viability: 0.256
LOU-NH91; first compound 0.001 µM
  relative viability: 0.318
LOU-NH91; first compound 0.003162 µM
  relative viability: 0.308
LOU-NH91; first compound 0.01 µM
  relative viability: 0.346
LOU-NH91; first compound 0.03162 µM
  relative viability: 0.276
LOU-NH91; first compound 0.1 µM
  relative viability: 0.321
NCI-H1666; first compound 0.001 µM
  relative viability: 1.02
NCI-H1666; first compound 0.003162 µM
  relative viability: 1.01
NCI-H1666; first compound 0.01 µM
  relative viability: 1.1
NCI-H1666; first compound 0.03162 µM
  relative viability: 0.999
NCI-H1666; first compound 0.1 µM
  relative viability: 1.17
NCI-H1355; first compound 0.001 µM
  relative viability: 0.542
NCI-H1355; first compound 0.003162 µM
  relative viability: 0.7
NCI-H1355; first compound 0.01 µM
  relative viability: 0.644
NCI-H1355; first compound 0.03162 µM
  relative viability: 0.549
NCI-H1355; first compound 0.1 µM
  relative viability: 0.654
RERF-LC-KJ; first compound 0.001 µM
  relative viability: 1.3
RERF-LC-KJ; first compound 0.003162 µM
  relative viability: 1.47
RERF-LC-KJ; first compound 0.01 µM
  relative viability: 1.34
RERF-LC-KJ; first compound 0.03162 µM
  relative viability: 0.946
RERF-LC-KJ; first compound 0.1 µM
  relative viability: 1.22
NCI-H1437; first compound 0.001 µM
  relative viability: 1.11
NCI-H1437; first compound 0.003162 µM
  relative viability: 1.3
NCI-H1437; first compound 0.01 µM
  relative viability: 1.26
NCI-H1437; first compound 0.03162 µM
  relative viability: 0.885
NCI-H1437; first compound 0.1 µM
  relative viability: 0.934
